ChEMBL document CHEMBL3856213, “neo-Clerodane diterpenoids from Scutellaria barbata mediated inhibition of P-glycoprotein in MCF-7/ADR cells” (Eur J Med Chem, 2016)
Active and inactive are the calls of the source. The rule behind the calls is not given here.

What was measured:
NCI/ADR-RES [1] = assay: Reversal index, ratio of IC50 for human MCF7/ADR cells to IC50 for human MCF7 cells; type: functional
[2] = Cytotoxicity against human MCF7 cells assessed as inhibition of cell survival rate after 48 hrs by MTT assay; type: functional, cell-based; details: MCF7, 48 h
[3] = Cytotoxicity against human MCF7/ADR cells assessed as inhibition of cell survival rate after 48 hrs by MTT assay; type: functional, cell-based; details: NCI/ADR-RES
[4] = Cytotoxicity against human MCF7 cells assessed as inhibition of cell survival rate at 50 uM after 48 hrs by MTT assay relative to control; type: functional; details: MCF7, 48 h
NCI/ADR-RES [5] = assay: Inhibition of P-gp in human MCF7/ADR cells assessed as potentiation of adriamycin-induced cytotoxic activity at 20 uM after 48 hrs by MTT assay relative to control; type: cell-based
NCI/ADR-RES [6] = assay: Inhibition of P-gp in human MCF7/ADR cells assessed as increase in intracellular adriamycin accumulation at 10 uM after 3 hrs by flow cytometry relative to control; type: cell-based
NCI/ADR-RES [7] = assay: Inhibition of P-gp in human MCF7/ADR cells assessed as increase in intracellular rhodamine123 accumulation at 10 to 20 uM incubated for 4 hrs in dark condition by flow cytometry; type: cell-based
NCI/ADR-RES [8] = assay: Inhibition of P-gp in human MCF7/ADR cells assessed as increase in intracellular adriamycin accumulation at 20 uM after 3 hrs by flow cytometry; type: cell-based
NCI/ADR-RES [9] = assay: Inhibition of P-gp in human MCF7/ADR cells assessed as potentiation of adriamycin-induced cell death by measuring dead cell levels at 20 uM after 48 hrs by 7-AAD staining-based flow cytometry (reference value: 8.1%); set-up: scale not given: the % may be the effect or the level left
NCI/ADR-RES [10] = assay: Inhibition of P-gp in human MCF7/ADR cells assessed as increase in intracellular adriamycin accumulation at 10 to 20 uM after 4 hrs by fluorescence microscopic analysis; type: cell-based
[11] = Downregulation of P-gp expression in human MCF7/ADR cells at 20 uM after 36 hrs by Western blot method relative to control; type: functional, cell-based; details: NCI/ADR-RES
NCI/ADR-RES [12] = assay: Inhibition of P-gp in human MCF7/ADR cells assessed as increase in intracellular adriamycin accumulation at 20 uM after 3 hrs by flow cytometry relative to verapamil; type: cell-based
NCI/ADR-RES [13] = assay: Inhibition of P-gp in human MCF7/ADR cells assessed as potentiation of adriamycin-induced cell death by measuring dead cell levels at 10 uM after 48 hrs by 7-AAD staining-based flow cytometry; set-up: scale not given: the % may be the effect or the level left
NCI/ADR-RES [14] = assay: Inhibition of P-gp in human MCF7/ADR cells assessed as increase in intracellular adriamycin accumulation at 10 uM after 3 hrs by flow cytometry relative to verapamil; type: cell-based
[15] = Downregulation of P-gp expression in human MCF7/ADR cells at 10 uM after 36 hrs by Western blot method relative to control; type: functional, cell-based; details: NCI/ADR-RES

| Compound | inhibition at 50 µM [4] [%] | fold change (FC) (NCI/ADR-RES [5]) | inhibition (NCI/ADR-RES [7]) | inhibition (NCI/ADR-RES [8]) | further results |
| --- | --- | --- | --- | --- | --- |
| CC(=O)O[C@@]12CO[C@@H]1C[C@H](O)[C@@]1(C)C(=O)[C@H](O)C3=C(C)[C@@H](OC(=O)[C@H](O)[C@@H](NC(=O)OC(C)(C)C)c4ccccc4)C[C@@](O)([C@@H](OC(=O)c4ccccc4)[C@H]21)C3(C)C [DOCETAXEL ANHYDROUS] | – | – | – | – | Ratio IC50 (NCI/ADR-RES [1]): 26.5; IC50 [2]: 0.8 µM; IC50 [3]: 21.2 µM |
| CC1=CC[C@@H](O)[C@H]2[C@@]1(C)[C@@H](OC(=O)c1cccnc1)[C@H](O)[C@]1(C)O[C@]3(COC(=O)C3O)C[C@H](OC(=O)c3cccnc3)[C@]21C (relative stereo) | 19.5 | 7.9 | – | – | – |
| CC1=CC[C@@H](OC(=O)c2cccnc2)[C@H]2[C@@]1(C)[C@@H](OC(=O)c1cccnc1)[C@H](O)[C@]1(C)O[C@@]3(CC[C@]21C)COC(=O)C3 | 15.1 | 11.4 | Active | Active | inhibition (NCI/ADR-RES [6]): Active |
| CC1=CC[C@@H](OC(=O)c2cccnc2)[C@H]2[C@@]1(C)[C@H]1O[C@@](O)(C(C)C)C(=O)O[C@@H]1[C@]1(C)O[C@@]3(CC[C@]21C)COC(=O)C3 | 20.6 | 12.2 | Active | Active | inhibition (NCI/ADR-RES [6]): Active |
| CC1=CCC[C@H]2[C@@]1(C)[C@@H](OC(=O)c1cccnc1)[C@H](OC(=O)C(C)C)[C@](C)(O)[C@]2(C)/C=C/C1=CC(=O)OC1 | 19.1 | 6.3 | – | – | – |
| CC(=O)OC(C(=O)O[C@H]1[C@H](OC(=O)c2cccnc2)[C@@]2(C)C(C)=CCC[C@@H]2[C@@](C)(CCC2=C(O)C(=O)OC2)[C@@]1(C)O)C(C)C (stereo not given in full) | 37.6 | 3 | – | – | – |
| CC(=O)O[C@H]1[C@H](OC(=O)c2cccnc2)[C@@]2(C)C(C)=CC[C@@H](O)[C@@H]2[C@@]2(C)[C@@H](OC(=O)c3cccnc3)C[C@@]3(COC(=O)C3)O[C@@]12C | 14.3 | 29.1 | Active | Active | inhibition (NCI/ADR-RES [6]): Active |
| CC(=O)O[C@H]1[C@H](OC(=O)c2cccnc2)[C@@]2(C)C(C)=CC[C@@H](OC(=O)c3cccnc3)[C@@H]2[C@@]2(C)CC[C@]3(COC(=O)C3)O[C@@]12C | 28.5 | 16.7 | Active | Active | inhibition (NCI/ADR-RES [6]): Active |
| CC1=CCC[C@H]2[C@@]1(C)[C@@H](OC(=O)c1cccnc1)[C@H](OC(=O)c1cccnc1)[C@](C)(O)[C@]2(C)/C=C/C1=CC(=O)OC1 | 31.4 | 4.6 | – | – | – |
| COc1cccc2c1C(=O)c1c(O)c3c(c(O)c1C2=O)C[C@@](O)(C(=O)CO)C[C@@H]3O[C@H]1C[C@H](N)[C@H](O)[C@H](C)O1.Cl [DOXORUBICIN HYDROCHLORIDE] | – | – | – | – | Ratio IC50 (NCI/ADR-RES [1]): 58.8; IC50 [2]: 1 µM; IC50 [3]: 58.8 µM |
| CC(=O)O[C@@H](CC1=C(O)C(=O)OC1)[C@]1(C)[C@H]2CCC=C(C)[C@]2(C)[C@@H](OC(=O)c2cccnc2)[C@H](O)[C@]1(C)O | 18.5 | 1.5 | – | – | – |
| CC(=O)OC[C@@]12[C@@H](OC(C)=O)C[C@@H](C)[C@](C)(C3O[C@@H]4OC[C@@H](OC(=O)c5cccnc5)[C@@H]4[C@@H]3O)[C@H]1CCC[C@]21CO1 (stereo not given in full) | 25.2 | 2.8 | – | – | – |
| CC1=CCC[C@H]2[C@@]1(C)[C@@H](OC(=O)c1cccnc1)[C@H](OC(=O)c1ccccc1)[C@](C)(O)[C@]2(C)/C=C\C1=CC(=O)OC1 | 17.4 | 9 | – | – | – |
| CC(=O)O[C@@H](CC1=C(O)C(=O)OC1)[C@]1(C)[C@H]2CCC=C(C)[C@]2(C)[C@@H](OC(=O)c2cccnc2)[C@H](OC(=O)c2ccccc2)[C@]1(C)O | 23.1 | 2 | – | – | – |
| CC1=CCC[C@H]2[C@@]1(C)[C@@H](OC(=O)c1cccnc1)[C@H](O)[C@](C)(O)[C@]2(C)CCC1=C(O)C(=O)OC1 | 28.5 | 11.5 | – | – | – |
| CC1=CC[C@@H](OC(=O)c2cccnc2)[C@H]2[C@@]1(C)[C@@H](OC(=O)c1cccnc1)[C@H](OC(=O)c1cccnc1)[C@]1(C)O[C@]3(CC[C@]21C)COC(=O)C3 | 40.6 | 29.6 | Active | Active | fold change (FC) (NCI/ADR-RES [6]): 2.27 |
| CC1=CC[C@@H](OC(=O)c2ccccc2)[C@H]2[C@@]1(C)[C@@H](OC(=O)c1cccnc1)[C@H](O)[C@]1(C)O[C@@]3(CC[C@]21C)COC(=O)C3 | 41.3 | 33.4 | Active | Active | inhibition (NCI/ADR-RES [6]): Active |
| CC1=CC[C@@H](OC(=O)c2cccnc2)[C@H]2[C@@]1(C)[C@@H](OC(=O)c1cccnc1)[C@H](OC(=O)c1ccccc1)[C@]1(C)O[C@]3(CC[C@]21C)COC(=O)C3 | 13.6 | 45.3 | Active | Active | fold change (FC) (NCI/ADR-RES [6]): 2.89; Activity (NCI/ADR-RES [9]): 89.2%; inhibition (NCI/ADR-RES [10]): Active; Activity [11]: 32%; fold change (FC) (NCI/ADR-RES [12]): 1.8; Activity (NCI/ADR-RES [13]): 74.7%; fold change (FC) (NCI/ADR-RES [14]): 1.5; Activity [15]: 27% |
| CC1=CCC[C@H]2[C@@]1(C)[C@@H](OC(=O)c1cccnc1)[C@H](OC(=O)c1cccnc1)[C@](C)(O)[C@]2(C)/C=C\C1=CC(=O)OC1 | 18.8 | 13.1 | – | – | – |
| CC(=O)O[C@H]1[C@H](OC(C)=O)[C@]2(C)O[C@]3(CC[C@]2(C)[C@H]2[C@H](OC(=O)c4cccnc4)CC=C(C)[C@]12C)COC(=O)C3 | 19.5 | 13 | Active | – | – |
| CC[C@]1(O)C[C@H]2CN(CCc3c([nH]c4ccccc34)[C@@](C(=O)OC)(c3cc4c(cc3OC)N(C=O)[C@H]3[C@@](O)(C(=O)OC)[C@H](OC(C)=O)[C@]5(CC)C=CCN6CC[C@]43[C@@H]65)C2)C1 [VINCRISTINE] | – | – | – | – | Ratio IC50 (NCI/ADR-RES [1]): 48.3; IC50 [2]: 1.3 µM; IC50 [3]: 62.8 µM |
| CC(=O)O[C@@H](CC1=C(O)C(=O)OC1)[C@]1(C)[C@H]2CCC=C(C)[C@]2(C)[C@@H](OC(=O)c2cccnc2)[C@H](OC(=O)c2cccnc2)[C@]1(C)O | 17.1 | 3.3 | – | – | – |
| CC(=O)O[C@H]1[C@H](OC(C)=O)[C@]2(C)O[C@@]3(CC[C@]2(C)[C@H]2[C@H](OC(=O)c4cccnc4)CC=C(C)[C@]12C)COC(=O)C3 (relative stereo) | 16.6 | 11.5 | Active | Active | inhibition (NCI/ADR-RES [6]): Active |
| CC1=CC[C@@H](O)[C@H]2[C@@]1(C)[C@@H](OC(=O)c1cccnc1)[C@H](O)[C@]1(C)O[C@]3(COC(=O)C3)C[C@H](OC(=O)c3cccnc3)[C@]21C (relative stereo) | 14.6 | 7.5 | – | – | – |
| CC1=CC[C@@H](OC(=O)c2ccccc2)[C@H]2[C@@]1(C)[C@@H](OC(=O)c1cccnc1)[C@H](O)[C@]1(C)O[C@]3(CC[C@]21C)COC(=O)C3 (relative stereo) | 20.1 | 17.8 | Active | Active | inhibition (NCI/ADR-RES [6]): Active |
| COc1ccc(CCN(C)CCCC(C#N)(c2ccc(OC)c(OC)c2)C(C)C)cc1OC (stereo not given) | – | 20.4 | – | – | fold change (FC) (NCI/ADR-RES [6]): 2.1; Activity (NCI/ADR-RES [13]): 46.7% |
| CC1=CCC[C@H]2[C@@]1(C)[C@@H](OC(=O)c1cccnc1)[C@H](OC(=O)c1ccccc1)[C@](C)(O)[C@]2(C)/C=C/C1=CC(=O)OC1 | 23.8 | 10.1 | – | – | – |
| CC(=O)O[C@H]1[C@H](OC(=O)c2cccnc2)[C@@]2(C)C(C)=CC[C@@H](OC(=O)c3cccnc3)[C@@H]2[C@@]2(C)CC[C@@]3(COC(=O)C3)O[C@@]12C | 35.7 | 37.7 | Active | Active | fold change (FC) (NCI/ADR-RES [6]): 2.36 |
| CC(=O)OC(C(=O)O[C@H]1[C@H](OC(=O)c2cccnc2)[C@@]2(C)C(C)=CCC[C@@H]2[C@@](C)(/C=C/C2=CC(=O)OC2)[C@@]1(C)O)C(C)C (stereo not given in full) | 23.8 | 11.4 | – | – | – |
